Laboratory results reported in patent US8362256B2, “Salts of N-[4-(1-cyanocyclopentyl)phenyl]-2-(4-pyridylmethyl)amino-3-pyridinecarboxamide” (Jiangsu Hengrui Medicine Co. Ltd., priority 2008, dated 2013).
Marks after values point to notes of the source that are not given here.

Tests used:
[1] = molecular target: c-Kit (Homo sapiens, UniProt P10721); assay: ELISA tyrosine kinase inhibition; format: biochemical; conditions: average of 3 experiments; read-out: IC50 ± SD, c-Kit
Experimental: (§1) Phosphorylation of substrate was determined with monoclonal antibody of anti-phosphorylation tyrosine (PY99). Goat anti-mouse IgG marked with HRP was then added, and the degree of phosphorylation of substrate was determined with OPD coloration. At the same time, the control group without tyrosine kinase and control wells of corresponding DMSO concentration were set up. 2 M of H2SO4 was added in 50 μl/well to terminate the reaction. Data was read with adjustable wavelength micro plate enzyme-labeling instrument VERSAmax (Sunnyvale, Calif., U.S.A.), followed by visualization reaction, OD490 nm value was then observed. […] Relative inhibition rate of drugs on tyrosine kinase protein was determined.

[2] = molecular target: KDR (Homo sapiens, UniProt P35968); assay: ELISA tyrosine kinase inhibition; format: biochemical; conditions: average of 3 experiments; read-out: IC50 ± SD, KDR
Experimental: as §1

[3] = Solubility; format: physicochemical
[4] = system: human colon cancer HT-29; assay: Efficacy on human colon cancer HT-29 transplanted in nude mice; conditions: for Weight after Removing Tumor, d0 / TV x ± SD, d0: d0 baseline; for RTV x ± SD / T/C / TV x ± SD, dn: dn 21 days; for Weight after Removing Tumor, dn: dn 21 days after first administration
Experimental: BALB/cA-nude mice, ♀, 5-6 weeks-old, purchased from Shanghai Slaccas experimental animals limited liability company. […] Rearing environment: SPF grade.
After one week adaption, the experimental animals were subcutaneously inoculated with human colon cancer HT-29 tumor tissues. When the tumors grew to 100-300 mm^3, the animals were randomly divided into several groups. […] Volume of tumors and weight of mice were measured 2-3 times every week, the data of which were recorded. The equation for the calculation of volume of tumors (V) is: V=½×a×b^2 wherein a, b represent length and width, respectively.

[5] = molecular target: Flt1 (Homo sapiens, UniProt P17948); assay: ELISA tyrosine kinase inhibition; format: biochemical; conditions: average of 3 experiments; read-out: IC50 ± SD, Flt1
Experimental: (§2) Phosphorylation of substrate was determined with monoclonal antibody of anti-phosphorylation tyrosine (PY99). Goat anti-mouse IgG marked with HRP was then added, and the degree of phosphorylation of substrate was determined with OPD coloration. At the same time, the control group without tyrosine kinase and control wells of corresponding DMSO concentration were set up. 2 M of H2SO4 was added in 50 μl/well to terminate the reaction. Data was read with adjustable wavelength micro plate enzyme-labeling instrument VERSAmax (Sunnyvale, Calif., U.S.A.), followed by visualization reaction, OD490 nm value was then observed.
(§3) Relative inhibition rate of drugs on tyrosine kinase protein was determined.

[6] = molecular target: PDGFRβ (Homo sapiens, UniProt P09619); assay: ELISA tyrosine kinase inhibition; format: biochemical; conditions: average of 3 experiments; read-out: IC50 ± SD, PDGFRβ
Experimental: as §2, §3

[7] = molecular target: FGFR1 (Homo sapiens, UniProt P11362); assay: ELISA tyrosine kinase inhibition; format: biochemical
Experimental: as §2, §3

[8] = molecular target: c-Src (Homo sapiens, UniProt P12931); assay: ELISA tyrosine kinase inhibition; format: biochemical; conditions: average of 3 experiments; read-out: IC50 ± SD, c-Src
Experimental: as §2, §3

[9] = molecular target: ErbB2 (Homo sapiens, UniProt P04626); assay: ELISA tyrosine kinase inhibition; format: biochemical
Experimental: as §2, §3

[10] = molecular target: EGFR1 (Homo sapiens, UniProt P00533); assay: ELISA tyrosine kinase inhibition; format: biochemical
Experimental: as §2, §3

[11] = in vivo; conditions: male, Sprague-Dawley, rat, po; for MRT: MRT of compound A; for Tmax: Tmax of compound A
From the text: Male Sprague-Dawley (SD) rats (weight: about 250 g, experimental animal certification of fitness: 0006473) were purchased from Shanghai Slaccas experimental animals limited liability company (certification number: SCXK (Hu) 2003-0003). The relevant qualifications and state of health of the SD rats were checked first, and the eligible ones were placed into the clean grade chambers of rats in Shanghai institute of Materia Medica.
I. Analysis Condition of LC/MS/MS
Analysis Condition of Liquid Chromatography
Chromatographic column: Agilent Zorbax SB-C18 column (50 mm×2.1 mm ID);
Column temperature: 25° C.;
Mobile phase: A: H2O—CH3CN (2:98, v/v), B: H2O—CH3CN (10:90, v/v)
A: 25%+B: 75%, constant gradient elution;
Analysis time: 3 minutes.
The light circle was switched to 12/12 hour day/night in the clean grade chambers of rats. Humidity and temperature were 40-60% and 20-24° C., respectively. Every 4 rats were raised in a 36×24×19 cm^3 stainless rat cage. The rats took water freely and were fed special rat food regularly once daily. Only after one week adaption, the rats were used to conduct pharmacokinetics studies. 12 Sprague-Dawley rats were divided into 4 groups, 3 for each group.
The blood samples were collected 0 hour before the administration and 0.083, 0.25, 0.5, 1.0, 2, 4, 6, and 8 hours after the administration. The blood samples were collected at 250˜300 μL at each time point from posterior venous sinus of the eye after respiration anaesthesia with ether (the degree of anaesthesia was highly controlled). The blood was collected into test tubes containing heparin, and then was centrifuged to produce plasma. The obtained plasma was divided into 2 parts (50 μL for each part) and stored at −70° C. until analysis. […] After experiments, euthanasia was performed with CO2 gas.
Pharmacokinetics parameters of animal experiment of each group were calculated using InnaPhase Kinetica™ software (America).

[12] = Stability in different conditions, content by HPLC; format: physicochemical
[13] = 50 mg/kg p.o. once daily d0-d20
[14] = 100 mg/kg p.o. once daily d0-d20
[15] = 200 mg/kg p.o. once daily d0-d20
[16] = concentration increased to 10^4 nM

Chain of ErbB2 (P04626 23-1255, species assumed): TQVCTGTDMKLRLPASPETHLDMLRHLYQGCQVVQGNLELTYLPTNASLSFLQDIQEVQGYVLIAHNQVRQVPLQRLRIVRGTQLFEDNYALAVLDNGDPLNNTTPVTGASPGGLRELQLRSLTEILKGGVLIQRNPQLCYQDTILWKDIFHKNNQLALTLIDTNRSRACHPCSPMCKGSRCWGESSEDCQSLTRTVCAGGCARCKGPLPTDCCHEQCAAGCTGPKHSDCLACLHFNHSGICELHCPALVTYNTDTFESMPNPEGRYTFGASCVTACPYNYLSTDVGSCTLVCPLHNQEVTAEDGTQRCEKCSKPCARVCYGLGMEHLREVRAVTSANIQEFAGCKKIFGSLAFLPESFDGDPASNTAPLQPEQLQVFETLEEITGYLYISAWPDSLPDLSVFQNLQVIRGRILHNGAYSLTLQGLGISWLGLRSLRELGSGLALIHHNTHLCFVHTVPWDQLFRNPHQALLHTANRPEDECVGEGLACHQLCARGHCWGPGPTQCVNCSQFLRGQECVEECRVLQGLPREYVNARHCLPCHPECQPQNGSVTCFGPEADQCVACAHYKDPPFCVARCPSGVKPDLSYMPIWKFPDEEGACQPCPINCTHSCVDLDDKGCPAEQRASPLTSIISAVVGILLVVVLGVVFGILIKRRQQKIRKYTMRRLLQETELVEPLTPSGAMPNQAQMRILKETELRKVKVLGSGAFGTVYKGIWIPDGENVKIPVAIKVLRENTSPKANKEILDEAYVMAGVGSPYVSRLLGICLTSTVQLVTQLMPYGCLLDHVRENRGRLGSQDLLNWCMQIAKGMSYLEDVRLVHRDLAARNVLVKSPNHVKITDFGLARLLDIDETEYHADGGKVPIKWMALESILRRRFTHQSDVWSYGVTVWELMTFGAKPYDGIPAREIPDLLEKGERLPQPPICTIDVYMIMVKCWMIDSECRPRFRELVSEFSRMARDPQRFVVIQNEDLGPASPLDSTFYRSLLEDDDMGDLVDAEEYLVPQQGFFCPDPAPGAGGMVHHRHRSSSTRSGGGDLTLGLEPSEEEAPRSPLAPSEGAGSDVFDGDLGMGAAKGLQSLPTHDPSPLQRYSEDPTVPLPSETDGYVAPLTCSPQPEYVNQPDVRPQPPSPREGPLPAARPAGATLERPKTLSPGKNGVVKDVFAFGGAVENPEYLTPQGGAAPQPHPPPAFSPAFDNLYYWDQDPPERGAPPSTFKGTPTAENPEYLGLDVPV
Chain of FGFR1 (P11362 22-822, species assumed): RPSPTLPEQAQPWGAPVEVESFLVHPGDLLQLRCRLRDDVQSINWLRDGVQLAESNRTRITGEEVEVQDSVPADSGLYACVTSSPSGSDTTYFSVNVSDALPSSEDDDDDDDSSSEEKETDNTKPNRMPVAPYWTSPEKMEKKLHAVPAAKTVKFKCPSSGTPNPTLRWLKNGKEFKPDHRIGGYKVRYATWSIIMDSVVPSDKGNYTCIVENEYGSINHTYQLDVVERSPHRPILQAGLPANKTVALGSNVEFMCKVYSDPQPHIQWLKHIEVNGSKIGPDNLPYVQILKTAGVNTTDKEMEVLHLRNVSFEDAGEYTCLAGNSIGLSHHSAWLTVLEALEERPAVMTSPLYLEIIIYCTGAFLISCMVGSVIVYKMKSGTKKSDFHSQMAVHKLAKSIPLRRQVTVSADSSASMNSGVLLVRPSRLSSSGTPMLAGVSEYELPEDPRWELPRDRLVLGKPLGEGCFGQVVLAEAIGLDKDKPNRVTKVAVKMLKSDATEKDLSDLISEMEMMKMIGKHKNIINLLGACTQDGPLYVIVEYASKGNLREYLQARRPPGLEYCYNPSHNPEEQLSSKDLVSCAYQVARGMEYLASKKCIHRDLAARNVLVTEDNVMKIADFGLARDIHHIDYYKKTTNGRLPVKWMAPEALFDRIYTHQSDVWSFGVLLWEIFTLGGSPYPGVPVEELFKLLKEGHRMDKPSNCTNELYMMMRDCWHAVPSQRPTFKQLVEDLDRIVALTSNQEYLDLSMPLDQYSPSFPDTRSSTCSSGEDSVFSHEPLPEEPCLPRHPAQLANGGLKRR
Chain of EGFR1 (P00533 25-1210): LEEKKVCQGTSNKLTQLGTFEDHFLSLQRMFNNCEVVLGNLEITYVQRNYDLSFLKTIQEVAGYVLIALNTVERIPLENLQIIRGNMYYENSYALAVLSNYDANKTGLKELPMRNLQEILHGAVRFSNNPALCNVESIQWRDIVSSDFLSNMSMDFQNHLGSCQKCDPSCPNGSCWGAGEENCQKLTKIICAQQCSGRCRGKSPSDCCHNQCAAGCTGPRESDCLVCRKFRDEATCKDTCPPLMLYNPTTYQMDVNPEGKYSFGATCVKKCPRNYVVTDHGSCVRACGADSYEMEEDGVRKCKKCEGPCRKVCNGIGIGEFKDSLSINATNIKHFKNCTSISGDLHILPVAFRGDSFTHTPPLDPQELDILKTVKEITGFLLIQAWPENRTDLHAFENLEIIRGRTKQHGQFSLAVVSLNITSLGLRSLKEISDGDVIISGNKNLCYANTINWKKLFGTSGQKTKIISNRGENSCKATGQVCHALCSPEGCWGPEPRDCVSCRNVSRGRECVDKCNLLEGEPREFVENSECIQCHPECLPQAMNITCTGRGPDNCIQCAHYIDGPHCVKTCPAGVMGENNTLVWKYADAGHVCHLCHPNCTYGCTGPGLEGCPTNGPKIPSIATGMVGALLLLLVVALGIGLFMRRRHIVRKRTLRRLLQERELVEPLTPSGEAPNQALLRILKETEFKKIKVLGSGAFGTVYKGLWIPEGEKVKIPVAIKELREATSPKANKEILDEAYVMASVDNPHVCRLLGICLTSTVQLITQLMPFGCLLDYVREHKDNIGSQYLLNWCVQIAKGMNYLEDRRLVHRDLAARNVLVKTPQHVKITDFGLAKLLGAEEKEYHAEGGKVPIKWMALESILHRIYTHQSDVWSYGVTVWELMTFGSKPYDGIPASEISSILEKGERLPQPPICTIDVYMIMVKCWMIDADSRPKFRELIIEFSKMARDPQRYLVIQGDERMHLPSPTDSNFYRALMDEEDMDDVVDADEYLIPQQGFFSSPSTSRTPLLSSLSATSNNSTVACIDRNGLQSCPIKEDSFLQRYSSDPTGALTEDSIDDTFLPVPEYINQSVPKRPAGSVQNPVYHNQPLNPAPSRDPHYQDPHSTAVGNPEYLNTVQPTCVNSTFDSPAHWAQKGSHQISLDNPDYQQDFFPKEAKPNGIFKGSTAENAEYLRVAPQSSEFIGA
Chain of c-Src (P12931 whole entry, species assumed): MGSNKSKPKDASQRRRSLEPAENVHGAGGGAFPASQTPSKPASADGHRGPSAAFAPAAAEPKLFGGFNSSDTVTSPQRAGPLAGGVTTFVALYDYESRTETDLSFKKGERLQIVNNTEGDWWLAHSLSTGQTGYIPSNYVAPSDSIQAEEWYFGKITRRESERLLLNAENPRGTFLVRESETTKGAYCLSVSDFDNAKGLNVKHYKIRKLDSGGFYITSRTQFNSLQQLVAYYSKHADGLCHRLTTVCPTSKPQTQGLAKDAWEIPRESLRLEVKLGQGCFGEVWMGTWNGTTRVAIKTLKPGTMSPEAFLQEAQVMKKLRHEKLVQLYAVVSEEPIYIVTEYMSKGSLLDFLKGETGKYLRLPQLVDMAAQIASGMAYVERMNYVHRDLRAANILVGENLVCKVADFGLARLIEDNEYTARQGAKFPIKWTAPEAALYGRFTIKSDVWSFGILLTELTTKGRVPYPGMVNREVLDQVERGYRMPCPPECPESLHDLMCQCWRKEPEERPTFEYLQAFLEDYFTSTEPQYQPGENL
Chain of c-Kit (P10721 26-976): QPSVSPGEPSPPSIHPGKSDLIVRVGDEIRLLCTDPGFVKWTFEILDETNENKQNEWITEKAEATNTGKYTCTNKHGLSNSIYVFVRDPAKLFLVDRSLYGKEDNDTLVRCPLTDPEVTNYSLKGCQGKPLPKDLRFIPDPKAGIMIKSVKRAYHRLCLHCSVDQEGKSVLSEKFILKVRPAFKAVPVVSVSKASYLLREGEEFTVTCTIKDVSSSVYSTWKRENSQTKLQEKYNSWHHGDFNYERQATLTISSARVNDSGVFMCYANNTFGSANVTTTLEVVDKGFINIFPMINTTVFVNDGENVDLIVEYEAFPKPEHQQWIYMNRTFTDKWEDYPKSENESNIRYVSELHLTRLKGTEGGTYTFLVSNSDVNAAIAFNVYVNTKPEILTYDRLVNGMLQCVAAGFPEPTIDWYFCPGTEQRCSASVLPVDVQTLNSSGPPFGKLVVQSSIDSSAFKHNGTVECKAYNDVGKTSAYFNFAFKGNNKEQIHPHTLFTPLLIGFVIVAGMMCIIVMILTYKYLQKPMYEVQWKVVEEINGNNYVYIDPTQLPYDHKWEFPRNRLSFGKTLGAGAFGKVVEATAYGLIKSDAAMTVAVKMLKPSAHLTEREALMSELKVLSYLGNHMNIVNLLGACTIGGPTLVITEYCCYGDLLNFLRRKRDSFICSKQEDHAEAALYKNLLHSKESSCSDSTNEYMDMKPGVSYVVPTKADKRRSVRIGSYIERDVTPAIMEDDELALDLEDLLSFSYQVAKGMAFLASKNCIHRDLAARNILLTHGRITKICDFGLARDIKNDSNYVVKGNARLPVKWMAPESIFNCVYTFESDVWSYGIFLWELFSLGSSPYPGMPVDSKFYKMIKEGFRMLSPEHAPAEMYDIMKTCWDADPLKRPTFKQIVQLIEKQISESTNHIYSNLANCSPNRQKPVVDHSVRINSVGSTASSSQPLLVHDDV

In the case of `N#CC1(c2ccc(NC(=O)c3cccnc3NCc3ccncc3)cc2)CCCC1` [Mesylate of compound A], the IC50 [1] is reported as 420 nM, the IC50 [2] is reported as 2.43 nM and the Solubility in water [3] is reported as “Insoluble”. For the same compound, the “Weight after Removing Tumor, d0” value [4, 13] was 16.1 g, the “RTV x ± SD” value [4, 13] was 5.42 ± 1.55 and the T/C [4, 13] was 62.5%. For the same compound, the “TV x ± SD, dn” value [4, 13] was 1250 ± 256, the “Weight after Removing Tumor, dn” value [4, 13] was 14.3 g and the “TV x ± SD, d0” value ([4]; 50 mg/kg p.o.) was 239 ± 49. The “Weight after Removing Tumor, d0” value [4, 14] was 17.0 g, the “RTV x ± SD” value [4, 14] was 3.78 ± 1.46 and the T/C [4, 14] was 43.6^a %. For the same compound, the “TV x ± SD, dn” value [4, 14] was 998 ± 296, the “Weight after Removing Tumor, dn” value [4, 14] was 16.4 g and the “TV x ± SD, d0” value ([4]; 100 mg/kg p.o.) was 272 ± 37. The “Weight after Removing Tumor, d0” value [4, 15] was 16.3 g, the “RTV x ± SD” value [4, 15] was 2.21 ± 0.52 and the T/C [4, 15] was 25.5^a %. The “TV x ± SD, dn” value [4, 15] was 571 ± 147, the “Weight after Removing Tumor, dn” value [4, 15] was 15.6 g and the T/C ([4]; 200 mg/kg p.o. once daily d0-d20, listed as mesylate of compound A) was 25.5%. The “TV x ± SD, d0” value ([4]; 200 mg/kg p.o.) was 260 ± 39, the tolerance ([4]; mouse, in vivo, po) was “well tolerated” and the IC50 [5] was 70.1 nM. The IC50 [6] was 537 nM, the IC50 ([7]; average of 3 experiments, read-out: IC50 ± SD, FGFR1) was over 10000 nM and the “inhibition on FGFR1” value [7, 16] was “no inhibition”. The IC50 [8] was 349 nM, the IC50 ([9]; average of 3 experiments, read-out: IC50 ± SD, ErbB2) was over 10000 nM and the “inhibition on ErbB2” value [9, 16] was “no inhibition”. The IC50 ([10]; average of 3 experiments, read-out: IC50 ± SD, EGFR1) was over 10000 nM, the “inhibition on EGFR1” value [10, 16] was “no inhibition” and the AUC(0-t) ([11]; 1 mmol/kg, AUC0→8 h Mol dose) was 17200 ± 6980 ng·h/mL. For the same compound, the AUC(0-t) ([11]; 20 mg/kg, AUC0→8 h of compound A, Mean ± SD) was 697 ± 283 ng·h/mL, the concentration at 0 h ([11]; 20 mg/kg, Blood Concentration of compound A, 0 h) was 0 ng/mL and the concentration at 4 h ([11]; 20 mg/kg, Blood Concentration of compound A, 4 h) was 30.5 ng/mL. The concentration at 8 h ([11]; 20 mg/kg, Blood Concentration of compound A, 8 h) was 29.9 ng/mL, the Cmax ([11]; 20 mg/kg, Cmax of compound A, Mean ± SD) was 489 ± 296 ng/mL and the MRT ([11]; 20 mg/kg) was 70.8 min. The MRT ([11]; 20 mg/kg, Mean ± SD) was 98.4 ± 28.8 min, the half-life ([11]; 20 mg/kg, T1/2 of compound A, Mean ± SD) was 52.2 ± 23.4 min and the Tmax ([11]; 20 mg/kg) was 15 min. The Tmax ([11]; 20 mg/kg, Mean ± SD) was 19.8 ± 8.4 min, the “stability (conclusion of stability experiments)” value [12] was “most stable” and the “content after 6 Months Under Light” value ([12]; HPLC, initial purity 99.6%) was 99.5%. The “content after 6 Months at 60° C.” value ([12]; HPLC, initial purity 99.6%) was 98.4% and the “content after 6 Months at Room Temperature” value ([12]; HPLC, initial purity 99.6%) was 99.5%.
